Among the data in US20230117034A1, “PYRAZOLOTRIAZINES” (Bayer Aktiengesellschaft, priority 2019, published 2023) are DC50 values, retold here.

T1 sequence (Q9NYV4 whole entry): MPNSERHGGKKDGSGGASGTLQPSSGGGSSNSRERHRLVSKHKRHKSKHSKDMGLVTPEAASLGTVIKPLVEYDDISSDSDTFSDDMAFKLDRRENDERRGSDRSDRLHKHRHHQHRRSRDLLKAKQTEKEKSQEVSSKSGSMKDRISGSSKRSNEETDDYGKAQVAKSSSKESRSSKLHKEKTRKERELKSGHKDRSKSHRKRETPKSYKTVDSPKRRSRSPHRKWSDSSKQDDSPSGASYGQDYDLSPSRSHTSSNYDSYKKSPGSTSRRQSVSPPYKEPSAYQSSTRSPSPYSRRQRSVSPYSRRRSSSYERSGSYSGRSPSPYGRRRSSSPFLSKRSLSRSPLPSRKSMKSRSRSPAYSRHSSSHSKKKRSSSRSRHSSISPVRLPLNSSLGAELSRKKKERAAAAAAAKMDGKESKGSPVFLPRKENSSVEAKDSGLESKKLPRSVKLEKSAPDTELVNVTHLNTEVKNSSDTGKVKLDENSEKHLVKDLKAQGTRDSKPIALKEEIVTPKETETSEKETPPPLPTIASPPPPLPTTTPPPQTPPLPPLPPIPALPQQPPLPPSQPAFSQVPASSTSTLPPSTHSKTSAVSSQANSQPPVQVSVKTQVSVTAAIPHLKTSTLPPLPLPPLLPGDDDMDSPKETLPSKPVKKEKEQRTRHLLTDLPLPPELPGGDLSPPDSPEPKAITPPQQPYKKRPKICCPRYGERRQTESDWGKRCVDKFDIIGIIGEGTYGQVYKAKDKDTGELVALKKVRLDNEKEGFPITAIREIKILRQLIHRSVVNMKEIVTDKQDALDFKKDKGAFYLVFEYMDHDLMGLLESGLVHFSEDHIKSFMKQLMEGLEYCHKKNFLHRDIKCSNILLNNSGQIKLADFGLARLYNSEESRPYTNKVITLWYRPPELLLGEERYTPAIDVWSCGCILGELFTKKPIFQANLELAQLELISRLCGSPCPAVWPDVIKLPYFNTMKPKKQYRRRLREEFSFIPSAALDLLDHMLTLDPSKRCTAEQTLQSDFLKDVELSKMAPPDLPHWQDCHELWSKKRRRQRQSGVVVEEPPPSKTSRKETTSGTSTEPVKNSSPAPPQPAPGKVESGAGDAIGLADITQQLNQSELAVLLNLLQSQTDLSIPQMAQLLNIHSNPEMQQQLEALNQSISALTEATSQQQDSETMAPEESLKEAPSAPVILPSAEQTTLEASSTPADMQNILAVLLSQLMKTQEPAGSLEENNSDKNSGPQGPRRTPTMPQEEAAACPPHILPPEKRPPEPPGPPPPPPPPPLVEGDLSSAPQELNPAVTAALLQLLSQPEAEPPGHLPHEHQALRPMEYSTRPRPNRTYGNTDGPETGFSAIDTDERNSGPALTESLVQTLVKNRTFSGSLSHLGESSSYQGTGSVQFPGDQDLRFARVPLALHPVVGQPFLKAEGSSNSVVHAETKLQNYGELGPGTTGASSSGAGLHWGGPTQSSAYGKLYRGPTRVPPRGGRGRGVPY
T1 sequence (O75909 whole entry partner): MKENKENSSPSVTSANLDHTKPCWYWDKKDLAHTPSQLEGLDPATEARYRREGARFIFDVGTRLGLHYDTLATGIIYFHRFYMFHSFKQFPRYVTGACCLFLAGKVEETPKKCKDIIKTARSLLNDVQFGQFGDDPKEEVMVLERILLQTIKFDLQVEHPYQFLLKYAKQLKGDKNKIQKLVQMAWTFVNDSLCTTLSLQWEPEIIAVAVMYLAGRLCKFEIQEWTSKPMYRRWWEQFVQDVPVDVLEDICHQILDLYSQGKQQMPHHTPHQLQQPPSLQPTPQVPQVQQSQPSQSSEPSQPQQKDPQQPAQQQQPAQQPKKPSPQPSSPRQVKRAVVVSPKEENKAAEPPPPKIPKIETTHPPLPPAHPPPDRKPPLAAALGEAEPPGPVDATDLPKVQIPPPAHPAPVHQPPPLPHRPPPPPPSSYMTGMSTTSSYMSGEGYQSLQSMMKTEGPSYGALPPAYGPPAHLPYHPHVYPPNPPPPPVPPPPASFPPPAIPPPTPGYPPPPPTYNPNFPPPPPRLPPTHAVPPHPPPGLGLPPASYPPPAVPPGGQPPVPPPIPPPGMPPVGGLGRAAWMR

The assay addresses T1, CDK12 protein level in CAL-120 breast cancer cells (Homo sapiens, UniProt Q9NYV4).
T1 construct: endogenous in cells; host or cells: CAL-120 human breast cancer cells (DSMZ ACC 459)
The experiment in a line: CDK12 protein level: Protein Simple (CDK12, CAL-120). The format is cell-based. The following applies: CAL-120 cells, 18 h with compound, CDK12/HSP90 peak area ratio vs vehicle, median, read-out: CDK12 protein level in CAL-120 breast ca cells, DC50-[mol/l] (median). In short, it runs like this:
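Cells grown 24 h, then treated with compounds for 18 h at 37° C against DMSO controls. Lysates (0.4 microgramms protein) run on Protein Simple 66-440 kDa size assay with CDK12 and HSP90 loading-control antibodies. CDK12/HSP90 peak-area ratios versus vehicle gave DC50 (50% reduction) by 4-parameter fit.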
With `Brc1cnn2c(NCc3nnc(-c4ccccc4)[nH]3)nc(N3CCCC3)nc12` [Example 64, 8-bromo-N-[(5-phenyl-4H-1,2,4-triazol-3-yl)methyl]-2-(pyrrolidin-1-yl)pyrazolo[1,5-a][1,3,5]triazin-4-amine], the DC50 stood at 0.0871 µM. The figure for `CC(C)c1cnn2c(NCc3nc4ccccc4[nH]3)nc(N3CCOCC3)nc12` [Example 1, N-[(1H-benzimidazol-2-yl)methyl]-2-(morpholin-4-yl)-8-(propan-2-yl)pyrazolo[1,5-a][1,3,5]triazin-4-amine] is 0.0574 µM; for `COC1CCN(c2nc(NCc3nc4ccccc4[nH]3)n3ncc(Br)c3n2)CC1` [Example 62, N-[(1H-benzimidazol-2-yl)methyl]-8-bromo-2-(4-methoxypiperidin-1-yl)pyrazolo[1,5-a][1,3,5]triazin-4-amine] it is 0.128 µM.

With `COC(=O)C1CCN(c2nc(NCc3nc4ccccc4[nH]3)n3ncc(Br)c3n2)CC1` [Example 63, methyl 1-(4-{[(1H-benzimidazol-2-yl)methyl]amino}-8-bromopyrazolo[1,5-a][1,3,5]triazin-2-yl)piperidine-4-carboxylate], the DC50 was 0.0418 µM.

For `Fc1ccc(-c2cnc(CNc3nc(N4CCOCC4)nc4c(Br)cnn34)[nH]2)cc1` [Example 66, 8-bromo-N-{[5-(4-fluorophenyl)-1H-imidazol-2-yl]methyl}-2-(morpholin-4-yl)pyrazolo[1,5-a][1,3,5]triazin-4-amine], the DC50 came to 0.0437 µM.
